{"source": "patent US20100297020A1", "about": "“PHOSPHORYLATED AND PHOSPHONATED PYRONE ANALOGS FOR THERAPEUTIC TREATMENT” (Limerick Biopharma, Inc., priority 2008, published 2010)", "key": {"ZDF rats [1]": {"system": "ZDF rats", "assay": "Pancreas histopathology, insulin staining and TUNEL in ZDF rats", "format": "in vivo", "details": "following four weeks of daily treatment", "source_text": "Pancreas samples from Example 26 are stored in 10% NBF and used in this study. All tissue samples were processed through graded alcohols, cleared in xylene and infiltrated and embedded into paraffin. For the pancreas four 4 micron sections were cut, one was stained with Hematoxylin and Eosin for histopathology, two were immunohistochemically stained with an antibody to insulin to determine beta cell mass and one was stained for apoptosis with the tunel technique.\nThe insulin staining procedure was performed as follows: Endogenous peroxidase activity was inhibited by incubation in 3% hydrogen peroxide. Non-specific staining was blocked with DAKO Protein Block Serum-Free (Dako, Carpinteria, Calif.). Insulin positive cells were immunohistochemically stained with a polyclonal guinea pig anti-swine insulin antibody at room temperature for 30 minutes (Dako, Carpinteria, Calif.). After incubation with primary antibody, the tissue sections were sequentially incubated with Envision+ HRP Rabbit (Dako, Carpinteria, Calif.). Staining was developed with Liquid DAB+ (Dako, Carpinteria, Calif.) and counterstained with hematoxylin.\nPancreas samples were stained for apoptosis as follows: 4 micron sections were cut and stained for TUNEL utilizing the following kit In Situ Cell Death Detection Kit, AP (Roche Applied Science, catalog 11 684 809 910)."}, "male C57BL/6 mice": {"system": "male C57BL/6 mice", "assay": "Plasma and liver triglyceride in C57BL/6 mice", "format": "in vivo", "procedure": "Experimental Design: This study is a 2-week study conducted with male C57BL/6 mice (24 animals, 3 treatment arms, 8 rats/arm) 9-week old at the start of compound treatment. The animals are maintained (starting at 8-week old) on a 12-hr light and 12-hr dark cycle, and provided with commercial rodent chow Purina 5001 and water ad libitum.\nThe stock solution of vehicle (HCO-60) is composed of 200 mg of HCO-60 per mL of 80% alcohol. Vehicle is prepared by diluting the HCO-60 stock solution 1:10 with saline. Compound 3 stock solutions are prepared in HCO-60 stock solution and diluted with saline or vehicle to the appropriate dose concentration.\nTail-vein-blood samples are collected from each rat 24 hour after the last treatment (day-14) for plasma triglyceride determination. Animals are sacrificed to obtain liver for triglyceride determination."}, "ZDF rats [2]": {"system": "ZDF rats", "assay": "Oral glucose tolerance test (OGTT) in ZDF rats after the 4 week study", "format": "in vivo", "details": "glucose 2 g/Kg PO", "procedure": "Following the 4 week study described in Example 26 above, the animals were fasted for 12 hours and on day-29, pre-drug blood samples are collected and glucose level and insulin level are measured. The animals are treated intraperitoneally (i.p.) with the following compounds:\nThirty (30) minutes after the treatment, pre-glucose blood samples are collected and the animals are then dosed with glucose (2 g/Kg, PO). Tail vein blood samples are collected at 30, 60, 90 and 120 minutes. Glucose levela and insulin leveal are measured. FIG. 31 show the plasma glucose level measured during OGTT. […] FIG. 32 show the plasma insulin level measured during OGTT. Phosphonated pyrone analogs raise insulin output in response to OGTT."}, "[3]": {"system": "BB19 cells, human BCECs (brain capillary endothelial cells)", "assay": "Cyclosporin uptake assay", "format": "cell-based", "details": "0.1 μM test compound; 1 hour incubation", "procedure": "(§1) BB19 cells, human BCECs (brain capillary endothelial cells) immortalized with the E6E7 genes of human papilloma virus, were kindly provided from Jacques G. Prudhomme, Department of Biology, University of California, Riverside, U.S.A. The cells were cultured as monolayer culture in Amniomax™-C100 basal medium (catalog number 17001-157) with Amniomax™-C100 supplement (catalog number 12556-049) (Invitrogen, Basel, CH).\n(§2) Cells were seeded onto culture surfaces precoated with 10 μg/cm^2 rat tail collagen type I (BD Bioscience, Allschwil, CH) at a density of approximately 50′000 cells/cm^2 and were cultured in an incubator at 37° C. with 5% CO2, 95% fresh air and saturated humidity. For uptake assays, cells were seeded on precoated 96-well plates. Assays were performed at confluency, after 6 days in culture.\n(§3) BB19 cells were seeded 50′000 cells/cm^2 on 96-well plates (Falcon) and incubated under condition described above for 6 days. Before starting the assay, cells were washed 2 times with pre-warmed Dulbecco's MEM with Glutamax-I (catalog number 61965) (Invitrogen AG, Basel, CH), supplemented with 1% non essential amino acids, 1% sodium pyruvate, 50 μg/ml gentamycin (Invitrogen AG) (DMEM). Cells were then incubated for 15 min at 37° C. and 120 rpm in DMEM with or without the specified concentrations of test compounds under investigation. After this pre-incubation, cells were incubated in DMEM containing [propyl-3H]-dihydro-FK506 (3H-tacrolimus, 1 μCi/ml, 34 nM) and with or without the specified concentrations of test compounds for 1 hour at 37° C. and 120 rpm. During this 1-hour incubation period, influx and efflux of the substrate, ^3H-tacrolimus, occur. After the 1-hour incubation period, assay was terminated by placing the assay plate on ice and washing the cells twice with ice-cold DMEM. Determination of cell associated ^3H-tacrolimus was performed by addition of Insta Gel and scintillation liquid to trypsinized cells followed by analysis on a scintillation counter (Packard TriCarb2000, Can berra Packard S.A.). The results are expressed as: % of control=100×[^3H-tacrolimus conc. with test compound]/[^3H-tacrolimus conc. with vehicle]\nThe cyclosporin uptake assay was performed similarly as described above for tacrolimus uptake assay except that ^3H-cyclosporin was used in place of ^3H-tacrolimus."}, "male ZDF rats": {"system": "male ZDF rats", "assay": "4 week study in ZDF rats (compound 2, compound 3)", "format": "in vivo", "source_text": "Seven week old male ZDF rats are used for the study.\nExperimental Design: This study is a 4 week study Using 32 7-week old male ZDF rats, divided into 4 treatment arms (8 rats/arm)."}, "[4]": {"system": "diet-induced obese mice (C57Bl/6, 60% high fat diet)", "assay": "Diet induced obese mice: IP-GTT and hyperinsulinemic euglycemic clamp", "format": "in vivo", "details": "10 mg/kg I.P. daily", "procedure": "Twenty-three (23) week old C57Bl/6 mice are placed on 60% high fat diet (HFD). After 9 weeks of HFD, mice are injected daily with either vehicle (PBS/NaCO3) or fisetin-3-O-methylphosphonate (compound 3) at a dosage of 10 mg/kg delivered via I.P. injection. HFD is continued throughout the injection period. After 2 weeks (week 10 and 11) of injection, mice are tested for basal blood (non-fasted) glucose levels by tail blood withdrawal. After 3 weeks (week 12) of injection, IP glucose tolerance test (IP-GTT) is performed at a dose of 1 gm dextrose per kilogram body weight. After 4 weeks (week 13) of injection, cannulation surgery is performed on anesthetized mice. Mice are allowed to recover 6 days. After 6 days, hyperinsulinemic euglycemic clamp studies are performed on the mice. After 7 weeks (week 16) of injections, a second IP-GTT is performed on the mice. Three days after the second IP-GTT, mice are sacrificed and blood and tissue samples are collected for further analysis."}, "male db/db mice": {"system": "male db/db mice", "assay": "4-week study in db/db mice", "format": "in vivo", "source_text": "The animals are maintained (starting at 7-week old) on a 12-hr light and 12-hr dark cycle, and provided with commercial rodent chow, LabDiet® 5K52, and water ad libitum."}, "[5]": {"system": "BB19 cells, human BCECs (brain capillary endothelial cells)", "assay": "Tacrolimus uptake assay", "format": "cell-based", "details": "Endothelial cell, 1 h, 0.1 μM test compound, 1 hour incubation, 3H-tacrolimus 34 nM, read-out: cell associated ^3H-tacrolimus uptake, % of control", "procedure": "as §1, §2, §3"}, "[6]": {"details": "is known to be; cited from earlier work"}}, "note": "Entries after “also recorded” stand apart in the source; their conditions may differ."}
{"smiles": "O=c1c(OCP(=O)(O)O)c(-c2ccc(O)c(O)c2)oc2cc(O)ccc12", "note": "[Compound 3, Fisetin-3-O-methylphosphonic acid]", "values": [{"measurement": "islet cell apoptosis", "setting": "ZDF rats [1]; TUNEL", "result": "decreases in islet cell apoptosis"}, {"measurement": "decrease in islet vacuolar degeneration (inhibition)", "setting": "ZDF rats [1]", "result": 43, "unit": "%"}, {"measurement": "decrease in pancreatic inflammation (inhibition)", "setting": "ZDF rats [1]", "result": 35, "unit": "%"}, {"measurement": "liver triglyceride", "setting": "male C57BL/6 mice; 30 mg/kg daily i.p. for 13 days, compared to vehicle", "result": "significantly reduces liver triglyceride"}, {"measurement": "plasma triglyceride", "setting": "male C57BL/6 mice; daily i.p. for 13 days, 30 and 3 mg/kg", "result": "reduces plasma triglyceride"}, {"measurement": "plasma insulin level during OGTT", "setting": "ZDF rats [2]", "result": "raises insulin output"}, {"measurement": "plasma glucose level during OGTT", "setting": "ZDF rats [2]; compound 2 100 mg/kg, compound 3 50 mg/kg i.p.", "result": "protect against hyperglycemia"}, {"measurement": "cell associated ^3H-cyclosporin uptake, % of control", "setting": "[3]", "result": "71 % of control"}, {"measurement": "plasma insulin levels", "setting": "male ZDF rats; 4 weeks daily i.p., compared to vehicle treated animals", "result": "require lower insulin levels to maintain nomal glucose levels"}, {"measurement": "plasma glucose levels", "setting": "male ZDF rats; 4 weeks daily i.p., compound 2 100 mg/kg, compound 3 100 mg/kg day 4 and 5, 50 mg/kg day 6-28, rosiglitazone 6 mg/kg", "result": "maintains steady glucose levels"}, {"measurement": "glycated hemoglobin levels (% HbA1c) at termination", "setting": "male ZDF rats; compared to vehicle treated animals", "result": "lower glycated hemoglobin levels"}, {"measurement": "triglycerides", "setting": "male ZDF rats; day 14 and day 21, over vehicle controls", "result": "marked decreases in triglycerides"}, {"measurement": "basal glucose", "setting": "[4]", "result": "reduces basal glucose"}, {"measurement": "hepatic glucose output", "setting": "[4]", "result": "impacts hepatic glucose output; also recorded: reduces hepatic glucose output"}, {"measurement": "insulin output in response to glucose challenge", "setting": "[4]", "result": "less insulin output is required"}, {"measurement": "tissue glucose uptake during hyperinsulinemic euglycemic clamp", "setting": "[4]", "result": "enhances tissue glucose uptake"}, {"measurement": "response to IP glucose challenge", "setting": "[4]; IP-GTT 1 gm dextrose per kilogram", "result": "improves response to glucose challenge"}, {"measurement": "body weights", "setting": "male db/db mice; 4 weeks of daily treatment", "result": "essentially identical that of vehicle treated animals"}, {"measurement": "liver triglyceride at sacrifice (day-29)", "setting": "male db/db mice; compound 3 10 mg/kg daily i.p.", "result": "significantly lower than vehicle treated mice"}, {"measurement": "plasma cholesterol levels on Day-28", "setting": "male db/db mice; compound 3 10 mg/kg daily i.p.", "result": "significantly lower than vehicle or rosiglitazone treated mice"}, {"measurement": "plasma triglyceride levels on Day-28", "setting": "male db/db mice; compound 3 10 mg/kg daily i.p.", "result": "significantly lower than vehicle or rosiglitazone treated mice"}, {"measurement": "plasma glucose level on Day-28", "setting": "male db/db mice; daily i.p., compound 3 30 and 10 mg/kg, rosiglitazone 10 mg/kg", "result": "lower than vehicle treated control mice"}, {"measurement": "activity at 0.1 µM", "setting": "[5]", "result": 44, "unit": "%"}]}
{"smiles": "O=c1c(O)c(-c2ccc(O)c(O)c2)oc2cc(O)cc(O)c12", "note": "[quercetin aglycone, quercetin]", "values": [{"measurement": "serum half-life", "setting": "[6]", "result": "19 to 25", "unit": "h"}]}
